This note sets out measurements from patent publication US9035022B2, “Cyclic CRF antagonist peptides” (Salk Institute for Biological Studies, priority 2010, dated 2015).

This experiment concerns adrenalectomized (ADX) rats. As to the kind of experiment: In vivo assay of ACTH secretion in adrenalectomized (ADX) rats. More on the design: species or system rat.

Procedure: The in vivo assays which are employed to test these CRF antagonists use adrenalectomized (ADX) rats. […] Their diet is supplemented with 0.9% NaCl in the drinking water and with oranges. Two days prior to the experiments, the animals are equipped with jugular cannulae, as described in C. […] On the morning of the experiments, the i.v. cannulae are connected to a line filled with heparinized saline, and the rats are placed in individual buckets and left undisturbed for 2 hours. For the experiment, a first blood sample of 0.3 mL is withdrawn, the test solution is injected (in an 0.2-0.5 mL volume), and subsequent blood samples are obtained at about 15, 45, 90 and 120 minutes. The blood samples are centrifuged, and the separated plasma are kept frozen (−20° C.) until assayed for ACTH values. Plasma ACTH levels are measured as described in C.

In the case of “[Tyr-Asp^1, Aib^19,24,32]-Astressin B [IV]”, where the note is “administration of the peptide”, the “inhibition of secretion of ACTH and β-END-LI” value is “inhibits the secretion of ACTH and β-END-LI”.

For [Aib^19,24,32, Orn^25]-Astressin B [V], the “inhibition of secretion of ACTH and corticosterone” value (general procedure of Example I) is “inhibits the secretion of ACTH and corticosterone”.
